In ChEMBL document CHEMBL1142837, “Synthesis of new carbo- and heterocyclic analogues of 8-HETE and evaluation of their activity towards the PPARs” (Bioorg Med Chem Lett, 2005):

Key:
[1] = molecular target: T1, Peroxisome proliferator-activated receptor gamma (Homo sapiens, UniProt P37231)
T1 sequence (P37231 whole entry): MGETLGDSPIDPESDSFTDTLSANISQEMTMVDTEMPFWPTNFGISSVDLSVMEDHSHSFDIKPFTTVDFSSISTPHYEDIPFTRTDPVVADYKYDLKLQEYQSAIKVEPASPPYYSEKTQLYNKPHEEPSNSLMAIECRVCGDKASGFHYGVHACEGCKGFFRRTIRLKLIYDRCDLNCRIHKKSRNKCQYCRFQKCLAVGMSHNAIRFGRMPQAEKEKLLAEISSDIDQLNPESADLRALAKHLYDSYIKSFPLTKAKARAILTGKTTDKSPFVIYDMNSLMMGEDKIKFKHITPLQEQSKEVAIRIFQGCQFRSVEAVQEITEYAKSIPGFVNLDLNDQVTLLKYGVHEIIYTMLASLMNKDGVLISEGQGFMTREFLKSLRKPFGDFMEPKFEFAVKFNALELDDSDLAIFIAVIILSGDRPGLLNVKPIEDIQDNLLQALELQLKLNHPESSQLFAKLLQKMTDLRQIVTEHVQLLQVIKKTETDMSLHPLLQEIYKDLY

[2] = molecular target: T2, Peroxisome proliferator-activated receptor alpha (Homo sapiens, UniProt Q07869); assay: In vitro effective concentration against human peroxisome proliferator activated receptor alpha/Gal4 in transactivation assay
T2 sequence (Q07869 whole entry): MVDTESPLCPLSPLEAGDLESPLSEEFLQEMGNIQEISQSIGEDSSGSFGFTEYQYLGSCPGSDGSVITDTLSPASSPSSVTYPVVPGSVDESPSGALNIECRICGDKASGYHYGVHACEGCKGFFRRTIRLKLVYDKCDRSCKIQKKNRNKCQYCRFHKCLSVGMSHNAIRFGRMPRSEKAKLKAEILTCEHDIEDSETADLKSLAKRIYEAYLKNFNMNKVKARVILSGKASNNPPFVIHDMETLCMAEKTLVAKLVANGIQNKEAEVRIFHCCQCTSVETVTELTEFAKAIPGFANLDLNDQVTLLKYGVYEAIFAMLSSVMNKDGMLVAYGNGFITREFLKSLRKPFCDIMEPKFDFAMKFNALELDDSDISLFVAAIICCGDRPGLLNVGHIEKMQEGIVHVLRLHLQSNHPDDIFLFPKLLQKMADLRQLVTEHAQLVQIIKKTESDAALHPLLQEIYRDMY

[3] = molecular target: T1, Peroxisome proliferator-activated receptor gamma; assay: In vitro effective concentration against human peroxisome proliferator activated receptor gamma/Gal4 in cell-based transactivation assay; assay type: functional

Row | SMILES | Ki [1] [µM] | EC50 [2] [µM] | EC50 [3] [µM]
1 | CCCCCOc1ncccc1C(O)C/C=C/CCCC(=O)OC (stereo unspecified) | > 10 | > 10 | > 10
2 | CCCCCOc1ncccc1C(O)CCCCCCC(=O)OC (stereo unspecified) | > 10 | > 10 | > 10
3 | CCCCCOc1ncccc1C(O)C/C=C/CCCC(=O)O (stereo unspecified) | > 10 | > 10 | > 10
4 | CCCCCOc1ccccc1C(O)CCCCCCC(=O)O (stereo unspecified) | 6.69 | > 10 | > 10
5 | CCCCCOc1nc2ccccc2cc1C(O)CC#CCCCC(=O)OC (stereo unspecified) | > 10 | 0.262 | 1.41
6 | CCCCCOc1ncccc1C(O)CCCCCCC(=O)O (stereo unspecified) | > 10 | > 10 | > 10
7 | CCCCCOc1cc2ccccc2cc1C(O)CC#CCCCC(=O)O (stereo unspecified) | 4.39 | – | > 10
8 | CCCCCOc1cc2ccccc2cc1C(O)CCCCCCCC(=O)OC (stereo unspecified) | 0.579 | 1.53 | 1.36
9 | CCCCCOc1nc2ccccc2cc1C(O)CCCCCCCC(=O)OC (stereo unspecified) | > 10 | > 10 | > 10
10 | CCCCCOc1ncccc1C(O)CC#CCCCC(=O)O (stereo unspecified) | > 10 | 1.54 | > 10
11 | CCCCCOc1ccccc1C(O)CC=CCCCC(=O)OC (stereo unspecified) | 3.76 | > 10 | 0.028
12 | CCCCCOc1ccccc1C(O)CC=CCCCC(=O)O (stereo unspecified) | > 10 | > 10 | 0.34
13 | CCCCCOc1nc2ccccc2cc1C(O)CC=CCCCC(=O)OC (stereo unspecified) | 1.33 | 1.3 | 1.55
14 | CCCCCOc1nc2ccccc2cc1C(O)CC=CCCCC(=O)O (stereo unspecified) | > 10 | 1.09 | 1.2
15 | CCCCCOc1nc2ccccc2cc1C(O)CCCCCC(=O)O (stereo unspecified) | 2.86 | 1.4 | 1.57
16 | CCCCCOc1ccccc1C(O)CC#CCCCC(=O)O (stereo unspecified) | > 10 | > 10 | > 10
17 | CCCCCOc1ncccc1C(O)CC#CCCCC(=O)OC (stereo unspecified) | > 10 | 1.63 | 0.549

The remaining molecules from weak to strong by Ki [1], led by results:

Row | Ki [1] [µM] | EC50 [2] [µM] | EC50 [3] [µM] | SMILES
18 | 1.05 | 0.173 | 0.642 | CCCCCOc1ccccc1C(O)CC#CCCCC(=O)OC (stereo unspecified)
19 | 1.03 | 1.19 | 1.5 | CCCCCOc1cc2ccccc2cc1C(O)CC=CCCCC(=O)O (stereo unspecified)
20 | 0.969 | 1.48 | > 10 | CCCCCOc1cc2ccccc2cc1C(O)CCCCCCC(=O)O (stereo unspecified)
21 | 0.947 | 0.114 | 0.617 | CCCCCOc1nc2ccccc2cc1C(O)CC#CCCCC(=O)O (stereo unspecified)
22 | 0.718 | 1.45 | > 10 | CCCCCOc1cc2ccccc2cc1C(O)C/C=C/CCCC(=O)OC (stereo unspecified)
23 | 0.695 | 1.14 | > 10 | CCCCCOc1cc2ccccc2cc1C(O)CC#CCCCC(=O)OC (stereo unspecified)
24 | 0.515 | > 10 | > 10 | CCCCCOc1ccccc1C(O)CCCCCCC(=O)OC (stereo unspecified)
